Measurements taken from patent US20100003217A1, “Compounds and Pharmaceutical Compositions for the Treatment of Viral Infections” (priority 2008, published 2010).

System: Huh-7 cells
Test: Metabolic disposition of [^14C]-Compound 1 and [^14C]-2′-C-methyl guanosine in Huh-7 cells (incubation medium, cellular extracts, nucleotide levels)
Assay type: in vitro ADME, human
Settings: for 2′-C-methyl guanosine nucleotide levels in cellular extracts / Major metabolites observed in cellular extracts (% of total radioactivity) / AUC (area under the concentration-time curve) of Compound 7 levels: Huh7; for AUC (area under the concentration-time curve) of Compound 7 levels: 0-72 h
Method: Huh-7 cells: Confluent monolayers of Huh-7 cells were dispersed using trypsin-EDTA, rinsed and pelleted by centrifugation at 1,000 rpm (Beckman, Model Allegra 6R). Cells were resuspended at 0.2, 0.3 and 0.4×10^6 cells/mL of medium (DMEM supplemented with 1% pyruvate, 10% FBS, 0.5% penicillin-streptomycin, 1% L-glutamine, 1% non-essential amino acids and 22 mM HEPES). Multi-well collagen I-coated plates (rat tail collagen type I; 6-well) were then seeded by addition of 2.0 mL of cell suspension to achieve final cell density of 0.4, 0.6 and 0.8×10^6 cells/well and placed in an incubator at 37° C. overnight to allow cells to attach and acclimatize to culture and the medium. Duplicate plates were prepared with the same cell density for cell number determination at each time point.
Huh-7 incubations were conducted in a final volume of 2.0 mL Huh7 culture medium/well ([…]). Culture medium from overnight incubation of cells was removed and replaced with fresh culture medium, pre-warmed to 37° C. containing [^14C]-Compound 1 or [^14C]-2′-C-methyl guanosine as described above for primary hepatocytes. After 24, 48 and 72 hours, 0.5-1.0 mL of incubation medium was removed and stored at −20° C. until analysis (described below). The remaining medium was discarded and cell monolayers processed and extracted as described above.
Preliminary identification of putative metabolites was conducted by comparing the retention time of observed metabolites in incubation medium and cellular extracts with retention times obtained with chemically synthesized standards using the chromatography conditions described below. Further identification of 2′-C-methyl guanosine nucleotides (mono-, di- and triphosphate) was carried out by incubating cellular extract samples with alkaline phosphatase (10 units for 60 min at 37° C.) and comparing the HPLC retention times of the resulting nucleosides with that of authentic 2′-C-methyl guanosine.
Cellular extracts were prepared by centrifugation at 16,000 RCF using an Eppendorf microcentrifuge (Eppendorf, Model 5415D) for 10 min to remove cellular debris. An aliquot of 5-10 μL of the supernatant was added to 5 mL of EcoLite™ (MP, Irvine, Calif.) liquid scintillation cocktail and radioactivity measured by liquid scintillation counting (LSC) using a Beckman Coulter LS6500 multipurpose liquid scintillation counter (Beckman Instruments, Fullerton, Calif.). The remaining sample was then dried using a Labconco refrigerated centrivap concentrator (Labconco, Kansas City, Mo.). Dry extracts were reconstituted in 120 μL of HPLC-grade water and centrifuged at 16,000 RCF using an Eppendorf microcentrifuge for 10 min. Prior to HPLC analysis (described below), radioactivity of the concentrated extracts was measured by LSC using 5 μL aliquots. Extraction recovery was then determined by comparing total radioactivity in extracts before and after drying. The remaining extract was then analyzed by HPLC with online radioactivity detection using a Flow Scintillation Analyzer Radiomatic™ 515TR. Radioactivity in the separated components was quantified by integrating the peaks using Flo-One™ Software (Perkin Elmer Life Sciences). Samples with poor recovery (<85%) were re-analyzed when possible.
Incubation medium samples were thawed at room temperature, vortexed and centrifuged at 16,000 RCF using an Eppendorf microcentrifuge. An aliquot of 10 μL was added to 5 mL of EcoLite™ (MP, Irvine, Calif.) liquid scintillation cocktail and radioactivity measured by LSC using a Beckman Coulter LS6500 multipurpose liquid scintillation counter (Beckman Instruments, Fullerton, Calif.). Samples (50-100 μL) were then analyzed by HPLC (described below) with online radioactivity detection using a Flow Scintillation Analyzer Radiomatic™ 515TR. Radioactivity in the separated components was quantified by integrating the peaks using Flo-One™ Software (Perkin Elmer Life Sciences). Samples with poor recovery (<85%) were re-analyzed when possible. […]

[1] = 10 μM [^14C]-2′-C-methyl guanosine, 0 h, n = 1
[2] = 10 μM [^14C]-2′-C-methyl guanosine, 24 h
[3] = 10 μM [^14C]-2′-C-methyl guanosine, 24 h, n = 1
[4] = 10 μM [^14C]-2′-C-methyl guanosine, 48 h
[5] = 10 μM [^14C]-2′-C-methyl guanosine, 48 h, n = 1
[6] = 10 μM [^14C]-2′-C-methyl guanosine, 72 h
[7] = 10 μM [^14C]-2′-C-methyl guanosine, 72 h, n = 1
[8] = 10 μM [^14C]-Compound 1, 0 h, replicate 1 of n = 2
[9] = 10 μM [^14C]-Compound 1, 0 h, replicate 2 of n = 2
[10] = 10 μM [^14C]-Compound 1, 24 h, first series
[11] = 10 μM [^14C]-Compound 1, 24 h, replicate 1 of n = 2
[12] = 10 μM [^14C]-Compound 1, 24 h, replicate 2 of n = 2
[13] = 10 μM [^14C]-Compound 1, 24 h, second series
[14] = 10 μM [^14C]-Compound 1, 48 h, first series
[15] = 10 μM [^14C]-Compound 1, 48 h, replicate 1 of n = 2
[16] = 10 μM [^14C]-Compound 1, 48 h, replicate 2 of n = 2
[17] = 10 μM [^14C]-Compound 1, 48 h, second series
[18] = 10 μM [^14C]-Compound 1, 72 h, first series
[19] = 10 μM [^14C]-Compound 1, 72 h, replicate 1 of n = 2
[20] = 10 μM [^14C]-Compound 1, 72 h, replicate 2 of n = 2
[21] = 10 μM [^14C]-Compound 1, 72 h, second series

| Structure (SMILES) | 2′-C-methyl guanosine nucleotide levels in cellular extracts [1] [pmol/million cells] | Major metabolites observed in cellular extracts (% of total radioactivity) [2] | 2′-C-methyl guanosine nucleotide levels in cellular extracts [3] | Major metabolites observed in cellular extracts (% of total radioactivity) [4] | 2′-C-methyl guanosine nucleotide levels in cellular extracts [5] | Major metabolites observed in cellular extracts (% of total radioactivity) [6] | 2′-C-methyl guanosine nucleotide levels in cellular extracts [7] | 2′-C-methyl guanosine nucleotide levels in cellular extracts [8] [pmol/million cells] | 2′-C-methyl guanosine nucleotide levels in cellular extracts [9] [pmol/million cells] | Major metabolites observed in cellular extracts (% of total radioactivity) [10] | 2′-C-methyl guanosine nucleotide levels in cellular extracts [11] [pmol/million cells] | 2′-C-methyl guanosine nucleotide levels in cellular extracts [12] [pmol/million cells] | Major metabolites observed in cellular extracts (% of total radioactivity) [13] | Major metabolites observed in cellular extracts (% of total radioactivity) [14] | 2′-C-methyl guanosine nucleotide levels in cellular extracts [15] [pmol/million cells] | 2′-C-methyl guanosine nucleotide levels in cellular extracts [16] [pmol/million cells] | Major metabolites observed in cellular extracts (% of total radioactivity) [17] | Major metabolites observed in cellular extracts (% of total radioactivity) [18] | 2′-C-methyl guanosine nucleotide levels in cellular extracts [19] [pmol/million cells] | 2′-C-methyl guanosine nucleotide levels in cellular extracts [20] [pmol/million cells] | other results |
| --- | --- | --- | --- | --- | --- | --- | --- | --- | --- | --- | --- | --- | --- | --- | --- | --- | --- | --- | --- | --- | --- |
| C[C@@]1(O)[C@H](O)[C@@H](COP(=O)(O)OP(=O)(O)O)O[C@H]1n1cnc2c(=O)[nH]c(N)nc21 [Compound 6, [(2R)-2-methyl-β-D-ribofuranosyl]guanine 5′-diphosphate] | 0 | BLD (BLD = below limit of detection (30 DPM)) | BLD (BLD = below limit of detection (0.02 pmol/million cells)) | 3.56 % of total radioactivity | BLD (BLD = below limit of detection (0.02 pmol/million cells)) | BLD (BLD = below limit of detection (30 DPM)) | BLD (BLD = below limit of detection (0.02 pmol/million cells)) | 0 | 0 | BLD (BLD = below limit of detection (30 DPM)) | 2.20 | 0 | 7.55 % of total radioactivity | 6.14 % of total radioactivity | 1.60 | 1.40 | 6.42 % of total radioactivity | 6.86 % of total radioactivity | 1.60 | 1.10 | Major metabolites observed in cellular extracts (% of total radioactivity) [21]: 8.44 % of total radioactivity |
| C[C@@]1(O)[C@H](O)[C@@H](COP(=O)(O)OP(=O)(O)OP(=O)(O)O)O[C@H]1n1cnc2c(=O)[nH]c(N)nc21 [Compound 7, [(2R)-2-methyl-β-D-ribofuranosyl]guanine 5′-triphosphate] | 0 | 10.5 % of total radioactivity | 3.10 pmol/million cells | 7.18 % of total radioactivity | 1.40 pmol/million cells | 10.4 % of total radioactivity | 1.60 pmol/million cells | 0 | 0 | 59.7 % of total radioactivity | 8.60 | 21.3 | 71.8 % of total radioactivity | 71.5 % of total radioactivity | 16.1 | 15.2 | 59.3 % of total radioactivity | 72.1 % of total radioactivity | 11.1 | 13.3 | AUC (area under the concentration-time curve) of Compound 7 levels (10 μM [^14C]-2′-C-methyl guanosine, n = 1): 120 pmol * hr/million cells; AUC (area under the concentration-time curve) of Compound 7 levels (10 μM [^14C]-Compound 1, replicate 1 of n = 2): 726 pmol * hr/million cells; AUC (area under the concentration-time curve) of Compound 7 levels (10 μM [^14C]-Compound 1, replicate 2 of n = 2): 1,020 pmol * hr/million cells; Major metabolites observed in cellular extracts (% of total radioactivity) [21]: 69.6 % of total radioactivity; Compound 7 AUC0-72h (Huh7 cells (n=1), [^14C]-2′-C-methyl guanosine): 120 pmol*h/million cells; Compound 7 AUC0-72h (Huh7 cells (n=2), [^14C]-Compound 1): 873 pmol*h/million cells; Compound 7 maximum concentration (Huh7 cells, [^14C]-2′-C-methyl guanosine, at 24 hours): 3 pmol/million cells; Maximum Compound 7 levels (Huh7 cells, [^14C]-Compound 1, at 48 hours): 16 pmol/million cells; % of total radioactivity in cellular extracts (Huh7 cells, up to 72 hours after [^14C]-Compound 1 incubation): 83-93%; Levels of Compound 7 in Huh7 cells lower than in human hepatocytes ([^14C]-Compound 1): 88% |
